Source: ChEMBL document CHEMBL1201862, “PubChem BioAssay data set” (2004)
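Exposure lasted 48 hours, with cells grown in 96-well plates and compounds tested at five concentrations. GI50 is the concentration that inhibits growth by half.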 Calls of active or inactive are those of the source. Cut-off read from the data, not from the text of the source: active = GI50 up to about 1.1 µM and inactive = higher.

Legend:
Assay in all cases: NCI anticancer screen, dose series, 48 h
T47D = test system: T47D
Malme-3M = test system: Malme-3M
COLO 205 = test system: COLO 205
786-0 = test system: 786-0
MCF7 = test system: MCF7
A549 = test system: A549
SK-MEL-5 = test system: SK-MEL-5
OVCAR-4 = test system: OVCAR-4
BT-549 = test system: BT-549
SK-MEL-28 = test system: SK-MEL-28
MOLT-4 = test system: MOLT-4
SN12C = test system: SN12C
DU-145 = test system: DU-145
MDA-MB-231 = test system: MDA-MB-231
LOX IMVI = test system: LOX IMVI
RXF 393 = test system: RXF 393
HOP-92 = test system: HOP-92
OVCAR-8 = test system: OVCAR-8
SNB-75 = test system: SNB-75
SK-MEL-2 = test system: SK-MEL-2
K562 = test system: K562
SW-620 = test system: SW-620
SF-539 = test system: SF-539
A498 = test system: A498
HT-29 = test system: HT-29
TK-10 = test system: TK-10
OVCAR-3 = test system: OVCAR-3
NCI-H226 = test system: NCI-H226
HCT-15 = test system: HCT-15
PC-3 = test system: PC-3
Hs-578T = test system: Hs-578T
U-251 = test system: U-251
ACHN = test system: ACHN
CCRF-CEM = test system: CCRF-CEM
UACC-62 = test system: UACC-62
UO-31 = test system: UO-31
UACC-257 = test system: UACC-257
NCI/ADR-RES = test system: NCI/ADR-RES
SNB-19 = test system: SNB-19
SF-268 = test system: SF-268
MDA-MB-435 = test system: MDA-MB-435
HL-60 = test system: HL-60
HCC 2998 = test system: HCC 2998
IGROV-1 = test system: IGROV-1
HCT-116 = test system: HCT-116
SF-295 = test system: SF-295
HOP-62 = test system: HOP-62
NCI-H23 = test system: NCI-H23
EKVX = test system: EKVX
CAKI-1 = test system: CAKI-1
MDA-N = test system: MDA-N
KM12 = test system: KM12
M14 = test system: M14
SK-OV-3 = test system: SK-OV-3
NCI-H522 = test system: NCI-H522
OVCAR-5 = test system: OVCAR-5
NCI-H460 = test system: NCI-H460
RPMI-8226 = test system: RPMI-8226

Structure (SMILES): COC(=O)c1ccccc1C1CN=NC12Cc1c(C)c3c(c(C)c1C2=O)CCC3 (centres undefined)
- GI50 (T47D): > 100 µM (inactive)
- GI50 (Malme-3M): > 100 µM (inactive)
- GI50 (COLO 205): > 100 µM (inactive)
- GI50 (786-0): 76.9 µM (inactive)
- GI50 (MCF7): > 100 µM (inactive)
- GI50 (A549): > 100 µM (inactive)
- GI50 (SK-MEL-5): > 100 µM (inactive)
- GI50 (OVCAR-4): > 100 µM (inactive)
- GI50 (BT-549): > 100 µM (inactive)
- GI50 (SK-MEL-28): > 100 µM (inactive)
- GI50 (MOLT-4): > 100 µM (inactive)
- GI50 (SN12C): > 100 µM (inactive)
- GI50 (DU-145): > 100 µM (inactive)
- GI50 (MDA-MB-231): 23.6 µM (inactive)
- GI50 (LOX IMVI): > 100 µM (inactive)
- GI50 (RXF 393): > 100 µM (inactive)
- GI50 (HOP-92): 22.5 µM (inactive)
- GI50 (OVCAR-8): > 100 µM (inactive)
- GI50 (SNB-75): 40.6 µM (inactive)
- GI50 (SK-MEL-2): > 100 µM (inactive)
- GI50 (K562): > 100 µM (inactive)
- GI50 (SW-620): > 100 µM (inactive)
- GI50 (SF-539): > 100 µM (inactive)
- GI50 (A498): > 100 µM (inactive)
- GI50 (HT-29): 40.1 µM (inactive)
- GI50 (TK-10): 2.48 µM (inactive)
- GI50 (OVCAR-3): > 100 µM (inactive)
- GI50 (NCI-H226): > 100 µM (inactive)
- GI50 (HCT-15): > 100 µM
- GI50 (PC-3): > 100 µM (inactive)
- GI50 (Hs-578T): > 100 µM (inactive)
- GI50 (U-251): > 100 µM (inactive)
- GI50 (ACHN): > 100 µM (inactive)
- GI50 (CCRF-CEM): > 100 µM (inactive)
- GI50 (UACC-62): > 100 µM (inactive)
- GI50 (UO-31): > 100 µM (inactive)
- GI50 (UACC-257): 25.2 µM (inactive)
- GI50 (NCI/ADR-RES): > 100 µM (inactive)
- GI50 (SNB-19): > 100 µM (inactive)
- GI50 (SF-268): > 100 µM (inactive)
- GI50 (MDA-MB-435): > 100 µM (inactive)
- GI50 (HL-60): > 100 µM (inactive)
- GI50 (HCC 2998): > 100 µM (inactive)
- GI50 (IGROV-1): > 100 µM (inactive)
- GI50 (HCT-116): 37.6 µM (inactive)
- GI50 (SF-295): 33.1 µM (inactive)
- GI50 (HOP-62): 77.4 µM (inactive)
- GI50 (NCI-H23): 54.6 µM (inactive)
- GI50 (EKVX): > 100 µM (inactive)
- GI50 (CAKI-1): > 100 µM (inactive)
- GI50 (MDA-N): > 100 µM (inactive)
- GI50 (KM12): > 100 µM (inactive)
- GI50 (M14): > 100 µM (inactive)
- GI50 (SK-OV-3): > 100 µM (inactive)
- GI50 (NCI-H522): 33.7 µM (inactive)
- GI50 (OVCAR-5): > 100 µM (inactive)
- GI50 (NCI-H460): > 100 µM (inactive)

Structure (SMILES): COc1ccc2ccccc2c1C1NC(=O)c2ccccc2N1 (centres undefined)
- GI50 (T47D): 12.1 µM (inactive)
- GI50 (Malme-3M): 0.634 µM (active)
- GI50 (COLO 205): 1.87 µM (inactive)
- GI50 (786-0): 1.53 µM (inactive)
- GI50 (RPMI-8226): 0.659 µM (active)
- GI50 (MCF7): 0.78 µM (active)
- GI50 (A549): 1.51 µM (inactive)
- GI50 (SK-MEL-5): 0.384 µM (active)
- GI50 (BT-549): > 100 µM (inactive)
- GI50 (SK-MEL-28): 0.802 µM (active)
- GI50 (MOLT-4): 0.826 µM (active)
- GI50 (SN12C): 2.67 µM (inactive)
- GI50 (DU-145): 1.53 µM (inactive)
- GI50 (MDA-MB-231): 3.63 µM (inactive)
- GI50 (LOX IMVI): 0.995 µM (active)
- GI50 (RXF 393): 1.37 µM (inactive)
- GI50 (HOP-92): 14.8 µM (inactive)
- GI50 (OVCAR-8): 3.03 µM (inactive)
- GI50 (SNB-75): 1.32 µM (inactive)
- GI50 (SK-MEL-2): 2.08 µM (inactive)
- GI50 (K562): 0.279 µM (active)
- GI50 (SW-620): 0.536 µM (active)
- GI50 (SF-539): 1.55 µM (inactive)
- GI50 (A498): 1.3 µM (inactive)
- GI50 (HT-29): 0.873 µM (active)
- GI50 (TK-10): 5.15 µM (inactive)
- GI50 (OVCAR-3): 0.398 µM (active)
- GI50 (NCI-H226): 1.57 µM (inactive)
- GI50 (HCT-15): 0.436 µM
- GI50 (PC-3): 0.519 µM (active)
- GI50 (Hs-578T): 1.7 µM (inactive)
- GI50 (U-251): 2.28 µM (inactive)
- GI50 (ACHN): 1.26 µM (inactive)
- GI50 (CCRF-CEM): 0.711 µM (active)
- GI50 (UACC-62): 0.455 µM (active)
- GI50 (UO-31): 11.3 µM (inactive)
- GI50 (UACC-257): 20.8 µM (inactive)
- GI50 (NCI/ADR-RES): 0.507 µM (active)
- GI50 (SNB-19): 2.84 µM (inactive)
- GI50 (SF-268): 3.08 µM (inactive)
- GI50 (MDA-MB-435): 0.234 µM (active)
- GI50 (HL-60): 0.0518 µM (active)
- GI50 (HCC 2998): 1.95 µM (inactive)
- GI50 (IGROV-1): 1.72 µM (inactive)
- GI50 (HCT-116): 0.614 µM (active)
- GI50 (SF-295): 0.578 µM (active)
- GI50 (HOP-62): 3.51 µM (inactive)
- GI50 (NCI-H23): 4.67 µM (inactive)
- GI50 (EKVX): 2.51 µM (inactive)
- GI50 (CAKI-1): 2.62 µM (inactive)
- GI50 (MDA-N): 0.173 µM (active)
- GI50 (KM12): 0.733 µM (active)
- GI50 (M14): 0.951 µM (active)
- GI50 (SK-OV-3): 2.82 µM (inactive)
- GI50 (NCI-H522): 1.54 µM (inactive)
- GI50 (OVCAR-5): 3.39 µM (inactive)
- GI50 (NCI-H460): 1.26 µM (inactive)
